Assays:
BPEC cells = test: In vitro growth inhibition of BPEC cells by estrogen antagonist; type: cell-based, human; settings: data not shown
Excerpt: (§1) Expression of CK18 and BER-Ep4 both confirm the adenocarcinoma features and exclude a squamous tumor. E-cadherin excludes a mesenchymal tumor. BPLER xenografts express progesterone receptor, which is consistent with the notion that BPLER xenografts are hormone-responsive. This was confirmed by experiments in which estrogen-progesterone treatment of mice increased subject tumor size approximately two-fold compared to untreated mice. […] Similar tumor xenografts from cells cultured in the MEGM media was negative for progesterone receptor expression and the in vitro growth inhibition of the cells with ICI 182,780 was less than 20% (data not shown).

BPE cells = test: In vitro growth inhibition of BPE cells by estrogen antagonist; type: cell-based, human; settings: data not shown
Excerpt: as §1

BPLE cells = test: In vitro growth inhibition of BPLE cells by estrogen antagonist; type: cell-based, human; settings: data not shown
Excerpt: as §1

[1] = system: cells cultured in the MEGM media; test: In vitro growth inhibition of cells cultured in the MEGM media by estrogen antagonist; type: cell-based, human; settings: data not shown
Excerpt: as §1

BPLER xenografts = test: Hormone response of BPLER xenograft tumors in mice; type: in vivo; settings: estrogen treated animals vs control animals
Excerpt: In one respect, the histology of tumors arising from BPLER is very similar, if not identical to human ductal breast carcinoma. There is prominent luminal marker CK18 expression in BPLER cells and tumors. There is also prominent expression of E-cadherin, a marker indicating polarization of cells. Morphology wise, BPLER xenografts form glandular structures similar to those seen in human tumors. BPLER xenografts into mammary fat pads are invasive into adjacent skeletal muscle, and cause a desmoplastic reaction. BPLER xenografts also express progesterone receptors based on immunohistological staining of xenograft tumor samples. In addition, BPLER tumor sizes respond to estrogen treatment, in that xenograft tumors weighed about 70-100% more in estrogen treated animals than in control animals. BPLER tumors spread within the breast tissue of mice, and the multifocal growth is consistent with lymphovascular invasion and spread of tumors.
Subcutaneous tumorigenicity was tested in 6-8 week old immunocompromised athymic nude mice by injecting about 1×10^6 cells resuspended in 100 μl of 50% matrigel (EHSS). Nude mice were irradiated with 400 rad 12 hr prior to injections. Orthotopic tumorigenicity was tested by injecting about 1×10^6 cells into the mammary fat pad of Nod/Skid mice. All mice were sacrificed on day 70. […]

| Molecule | growth inhibition (BPEC cells) | growth inhibition (BPE cells) | growth inhibition (BPLE cells) | in vitro growth inhibition [1] | xenograft tumor weight increase in treated versus control animals (BPLER xenografts) |
| --- | --- | --- | --- | --- | --- |
| C[C@]12CC[C@@H]3c4ccc(O)cc4C[C@@H](CCCCCCCCC[S+]([O-])CCCC(F)(F)C(F)(F)F)[C@H]3[C@@H]1CC[C@@H]2O (some centres unmarked) [ICI 182,780] | > 80% | > 80% | > 80% | less than 20% | – |
| estrogen | – | – | – | – | 70-100% |
